Test results published in the NIST ThermoML archive (doi:10.1021/acs.jced.6b00210).

Assay: xn = mol fraction of the nth substance listed
Conditions: 100 kPa, Liquid; for viscosity: Concentric cylinders viscometry; for mass density: Vibrating tube method

Nc1ccccc1 [aniline] + CCCC(C)O
Conditions | mass density [kg/m3] | viscosity [mPa·s]
293.15 K, x1 = 0.0811 | 824.5 | 3.55
293.15 K, x1 = 0.1599 | 839.5 | 3.23
293.15 K, x1 = 0.2399 | 855 | 3
293.15 K, x1 = 0.35 | 877 | 2.8
293.15 K, x1 = 0.44 | 895.5 | 2.71
293.15 K, x1 = 0.56 | 920.8 | 2.67
293.15 K, x1 = 0.65 | 940.4 | 2.72
293.15 K, x1 = 0.74 | 960.5 | 2.86
293.15 K, x1 = 0.8499 | 985.8 | 3.26
293.15 K, x1 = 0.9363 | 1006.3 | 3.79
293.15 K, x1 = 1 | 1021.7 | 4.37
298.15 K, x1 = 0.0811 | 820.3 | 3.03
298.15 K, x1 = 0.1599 | 835.3 | 2.74
298.15 K, x1 = 0.2399 | 850.8 | 2.53
298.15 K, x1 = 0.35 | 872.7 | 2.35
298.15 K, x1 = 0.44 | 891.1 | 2.28
298.15 K, x1 = 0.56 | 916.4 | 2.28
298.15 K, x1 = 0.65 | 935.9 | 2.34
298.15 K, x1 = 0.74 | 956 | 2.49
298.15 K, x1 = 0.8499 | 981.4 | 2.87
298.15 K, x1 = 0.9363 | 1001.9 | 3.31
298.15 K, x1 = 1 | 1017.4 | 3.8
303.15 K, x1 = 0.0811 | 816.1 | 2.61
303.15 K, x1 = 0.1599 | 831 | 2.34
303.15 K, x1 = 0.2399 | 846.5 | 2.12
303.15 K, x1 = 0.35 | 868.3 | 1.93
303.15 K, x1 = 0.44 | 886.7 | 1.86
303.15 K, x1 = 0.56 | 912 | 1.83
303.15 K, x1 = 0.65 | 931.6 | 1.87
303.15 K, x1 = 0.74 | 951.7 | 2.01
303.15 K, x1 = 0.8499 | 977 | 2.36
303.15 K, x1 = 0.9363 | 997.6 | 2.74
303.15 K, x1 = 1 | 1013.2 | 3.13
308.15 K, x1 = 0.0811 | 811.8 | 2.22
308.15 K, x1 = 0.1599 | 826.7 | 1.98
308.15 K, x1 = 0.2399 | 842.1 | 1.8
308.15 K, x1 = 0.35 | 863.9 | 1.65
308.15 K, x1 = 0.44 | 882.3 | 1.58
308.15 K, x1 = 0.56 | 907.6 | 1.562
308.15 K, x1 = 0.65 | 927.1 | 1.64
308.15 K, x1 = 0.74 | 947.2 | 1.78
308.15 K, x1 = 0.8499 | 972.7 | 2.09
308.15 K, x1 = 0.9363 | 993.3 | 2.44
308.15 K, x1 = 1 | 1009 | 2.75
313.15 K, x1 = 0.0811 | 807.5 | 1.84
313.15 K, x1 = 0.1599 | 822.3 | 1.64
313.15 K, x1 = 0.2399 | 837.6 | 1.5
313.15 K, x1 = 0.35 | 859.4 | 1.39
313.15 K, x1 = 0.44 | 877.8 | 1.359
313.15 K, x1 = 0.56 | 903 | 1.38
313.15 K, x1 = 0.65 | 922.6 | 1.46
313.15 K, x1 = 0.74 | 942.8 | 1.61
313.15 K, x1 = 0.8499 | 968.2 | 1.89
313.15 K, x1 = 0.9363 | 989 | 2.18
313.15 K, x1 = 1 | 1004.7 | 2.43
318.15 K, x1 = 0.0811 | 803.1 | 1.48
318.15 K, x1 = 0.1599 | 817.9 | 1.34
318.15 K, x1 = 0.2399 | 833.2 | 1.257
318.15 K, x1 = 0.35 | 854.9 | 1.18
318.15 K, x1 = 0.44 | 873.3 | 1.16
318.15 K, x1 = 0.56 | 898.6 | 1.21
318.15 K, x1 = 0.65 | 918.1 | 1.29
318.15 K, x1 = 0.74 | 938.3 | 1.44
318.15 K, x1 = 0.8499 | 963.8 | 1.7
318.15 K, x1 = 0.9363 | 984.6 | 1.93
318.15 K, x1 = 1 | 1000.4 | 2.14
323.15 K, x1 = 0.0811 | 798.7 | 1.19
323.15 K, x1 = 0.1599 | 813.3 | 1.11
323.15 K, x1 = 0.2399 | 828.6 | 1.06
323.15 K, x1 = 0.35 | 850.2 | 1.03
323.15 K, x1 = 0.44 | 868.5 | 1.03
323.15 K, x1 = 0.56 | 893.7 | 1.08
323.15 K, x1 = 0.65 | 913.3 | 1.17
323.15 K, x1 = 0.74 | 933.4 | 1.31
323.15 K, x1 = 0.8499 | 958.9 | 1.54
323.15 K, x1 = 0.9363 | 979.7 | 1.77
323.15 K, x1 = 1 | 995.5 | 1.96
